Reference: patent EP4778933A1 (Chengdu Hyperway Pharmaceuticals Co., Ltd., priority 2023, dated 2025)
Where two headings read alike, the source gives them in different places.

Columns and labels:
[1] = test system: KRAS G12V-mediated ERK phosphorylation; experiment: Inhibition of KRAS G12V-mediated ERK phosphorylation in SW480 cells; format: cell-based; conditions: 3 h incubation, read-out: Inhibitory activity on ERK phosphorylation (IC50) SW480-G12V
Method: (§1) Day 1: AGS cells, SW480 cells, NCI H358 cells, HCT116 cells, and KP2 cells were seeded into 384-well cell culture plates and cultured overnight in a 37°C, 5% CO2 incubator.
(§2) Day 2: The compounds were added to the plates using Echo550 and incubated for 3 h in a 37°C, 5% CO2 incubator. Then, cells fixed with paraformaldehyde, permeated with methanol and blocked with a blocking solution were added. Finally, a mixed solution of primary antibodies (rabbit anti pERK, mouse anti GAPDH) was added, and the mixture was incubated overnight at 4°C.
(§3) Day 3: The mixed solution of primary antibodies was discarded, and a mixed solution of secondary antibodies (goat anti rabbit 800 CW, goat anti mouse 680 RD) was added. The resulting mixture was incubated at room temperature in the dark. Finally, the cell culture plate was washed with PBST, and then inverted for 1 minute of centrifugation. The fluorescence signal values were read with Odyssey CLx.
(§4) ERK phosphorylation was calculated according to the following formula: [formula] • Negative control: DMSO • Positive control: 10 µM Reference • IC50 value was fitted and calculated by XLFit 5.0 using the parametric formula. • Y = Bottom+(Top-Bottom)/(1+10^((LogIC50-X)*HillSlope)) • X: log value of compound concentration. • Y: average value of relative expression of p-ERK between replicate wells.

[2] = test system: KRAS G12D-mediated ERK phosphorylation; experiment: Inhibition of KRAS G12D-mediated ERK phosphorylation in AGS cells (in-cell pERK/GAPDH immunofluorescence); format: cell-based; conditions: AGS cells, 3 h incubation; read-out: Inhibitory activity on ERK phosphorylation (IC50) AGS-G12D
Method: as §1, §2, §3, §4

[3] = In vivo pharmacokinetic test in mice; conditions: single dose 30 mg/kg, plasma, 30 mg/kg
Method: Each test compound was administered orally once to female BALB/c mice for pharmacokinetic study. The test compounds were prepared on the day of administration. The oral administration solvent: 50 mM sodium citrate (pH 5.0) + 10% captisol. The oral administration was conducted in a dose of 30 mg/kg. The animals were fasted for 10-14 h before oral administration, and the feeding was resumed 4 h after administration. Pharmacokinetic samples were collected through the orbit. The collection time points were: 15 min, 30 min, 1 h, 2 h, 4 h, 6 h, 8 h and 24 h after administration. Three whole blood samples were collected at each time point, with a collection volume of about 0.2 mL, and anticoagulated with sodium heparin. After blood samples were collected, they were immediately placed on ice and centrifuged within 1 h to isolate plasma (centrifugation conditions: 8000 rpm, 1 min, 2-8°C). The collected plasma was stored in a -20°C refrigerator before analysis. The concentrations of compounds in the plasma samples were determined using an LC-MS/MS analysis method.

SMILES	IC50 [1] [nM]	IC50 [2] [nM]	AUC ([3]; female BALB/c mice, oral) [ng·h/mL]	Cmax ([3]; female, BALB/c, mouse, po, read-out: Cmax) [ng/mL]	Cmax ([3]; female BALB/c mice, oral) [ng/mL]
CC1(O)COCCN(c2nc(OCC34CCCN3C(c3cc(F)c(F)c(F)c3)CC4)nc3c(F)c(-c4ccc(F)c5sc(N)c(C#N)c45)c(Cl)cc23)C1 (single isomer, unassigned) [Example 10, 2-amino-4-[6-chloro-8-fluoro-4-(6-hydroxy-6-methyl-1,4-oxazepan-4-yl)-2-({[3-(3,4,5-trifluorophenyl)-2,3,5,6,7,7a-hexahydro-1H-pyrrolizin-7a-yl]methyl}oxy)quinazolin-7-yl]-7-fluorobenzo[b]thiophene-3-carbonitrile]	> 1000				
CC1(O)COCCN(c2nc(OCC34CCCN3C(c3cc(F)c(F)c(F)c3)CC4)nc3c(F)c(-c4cccc5sc(N)c(C#N)c45)c(I)cc23)C1 (single isomer, unassigned) [Example 28, 2-amino-4-[6-iodo-8-fluoro-4-(6-hydroxy-6-methyl-1,4-oxazepan-4-yl)-2-({[3-(3,4,5-trifluorophenyl)-2,3,5,6,7,7a-hexahydro-1H-pyrrolizin-7a-yl]methyl}oxy)quinazolin-7-yl]benzo[b]thiophene-3-carbonitrile]		4.2	9224	3290	
CC1(O)COCCN(c2nc(OCC34CCCN3C(c3cc(F)c(F)c(F)c3)CC4)nc3c(F)c(-c4ccc(F)c5sc(N)c(C#N)c45)c(Cl)cc23)C1 (single isomer, unassigned) [Example 9, 2-amino-4-[6-chloro-8-fluoro-4-(6-hydroxy-6-methyl-1,4-oxazepan-4-yl)-2-({[3-(3,4,5-trifluorophenyl)-2,3,5,6,7,7a-hexahydro-1H-pyrrolizin-7a-yl]methyl}oxy)quinazolin-7-yl]-7-fluorobenzo[b]thiophene-3-carbonitrile]		27	5181		1897
CC1(O)COCCN(c2nc(OCC34CCCN3C(c3cc(F)c(F)c(F)c3)CC4)nc3c(F)c(-c4ccc(F)c5sc(N)c(C#N)c45)c(Cl)cc23)C1 (single isomer, unassigned) [Example 13, 2-amino-4-[6-chloro-8-fluoro-4-(6-hydroxy-6-methyl-1,4-oxazepan-4-yl)-2-({[3-(3,4,5-trifluorophenyl)-2,3,5,6,7,7a-hexahydro-1H-pyrrolizin-7a-yl]methyl}oxy)quinazolin-7-yl]-7-fluorobenzo[b]thiophene-3-carbonitrile]	16				
CC1(O)COCCN(c2nc(OCC34CCCN3C(c3cc(F)c(F)c(F)c3)CC4)nc3c(F)c(-c4cccc5sc(N)c(C#N)c45)c(Cl)cc23)C1 (single isomer, unassigned) [Example 18, 2-amino-4-[6-chloro-8-fluoro-4-(6-hydroxy-6-methyl-1,4-oxazepan-4-yl)-2-({[3-(3,4,5-trifluorophenyl)-2,3,5,6,7,7a-hexahydro-1H-pyrrolizin-7a-yl]methyl}oxy)quinazolin-7-yl]benzo[b]thiophene-3-carbonitrile]		33	6017		2148
CC1(O)COCCN(c2nc(OCC34CCCN3C(c3cc(F)c(F)c(F)c3)CC4)nc3c(F)c(-c4ccc(F)c5sc(N)c(C#N)c45)c(Cl)cc23)C1 (single isomer, unassigned) [Example 11, 2-amino-4-[6-chloro-8-fluoro-4-(6-hydroxy-6-methyl-1,4-oxazepan-4-yl)-2-({[3-(3,4,5-trifluorophenyl)-2,3,5,6,7,7a-hexahydro-1H-pyrrolizin-7a-yl]methyl}oxy)quinazolin-7-yl]-7-fluorobenzo[b]thiophene-3-carbonitrile]	> 1000				
